In brackets after ≈: the same amount, converted by molar mass. Activity calls are given as the source filed them. No cut-off for these calls is given here.
Assays:
[1] = target: T1, Dual specificity protein kinase TTK (Homo sapiens, UniProt P33981); assay: Inhibition of TTK in human HCT116 cells assessed as phosphorylation of histone H3 at Ser10 residue after 4 hrs by immunoassay; type: cell-based, HCT-116
T1 sequence (P33981 whole entry): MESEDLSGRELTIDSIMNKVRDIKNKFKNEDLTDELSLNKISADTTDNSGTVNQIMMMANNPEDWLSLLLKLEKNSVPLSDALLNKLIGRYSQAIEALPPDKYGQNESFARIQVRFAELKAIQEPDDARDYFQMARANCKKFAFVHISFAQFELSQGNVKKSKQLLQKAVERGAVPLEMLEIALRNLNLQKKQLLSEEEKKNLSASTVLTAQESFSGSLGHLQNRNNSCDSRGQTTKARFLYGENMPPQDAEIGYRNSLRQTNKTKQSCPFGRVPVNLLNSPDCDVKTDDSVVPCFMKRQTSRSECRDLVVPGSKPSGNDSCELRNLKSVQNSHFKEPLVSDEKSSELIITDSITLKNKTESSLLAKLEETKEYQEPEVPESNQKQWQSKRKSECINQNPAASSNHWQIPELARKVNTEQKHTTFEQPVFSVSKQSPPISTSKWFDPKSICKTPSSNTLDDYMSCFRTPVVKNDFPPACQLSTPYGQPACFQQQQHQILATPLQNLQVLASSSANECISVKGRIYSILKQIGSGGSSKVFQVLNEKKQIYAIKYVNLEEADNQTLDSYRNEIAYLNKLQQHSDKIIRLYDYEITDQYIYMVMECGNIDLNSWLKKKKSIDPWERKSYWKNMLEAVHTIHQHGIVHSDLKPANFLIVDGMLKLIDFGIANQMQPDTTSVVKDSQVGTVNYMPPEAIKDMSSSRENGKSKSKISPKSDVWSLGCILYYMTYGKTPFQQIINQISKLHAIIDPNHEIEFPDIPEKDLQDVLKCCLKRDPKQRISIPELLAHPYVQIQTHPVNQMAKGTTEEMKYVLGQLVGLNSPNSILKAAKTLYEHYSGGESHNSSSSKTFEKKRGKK

[2] = system: A549; assay: Growth inhibition of human A549 cells after 5 days by SRB assay; type: functional; conditions: A549, 120 h
[3] = target: T2, Aurora kinase A (Homo sapiens, UniProt O14965); assay: Inhibition of Aurora A (unknown origin) by FRET-based homogenous assay
T2 sequence (O14965 whole entry): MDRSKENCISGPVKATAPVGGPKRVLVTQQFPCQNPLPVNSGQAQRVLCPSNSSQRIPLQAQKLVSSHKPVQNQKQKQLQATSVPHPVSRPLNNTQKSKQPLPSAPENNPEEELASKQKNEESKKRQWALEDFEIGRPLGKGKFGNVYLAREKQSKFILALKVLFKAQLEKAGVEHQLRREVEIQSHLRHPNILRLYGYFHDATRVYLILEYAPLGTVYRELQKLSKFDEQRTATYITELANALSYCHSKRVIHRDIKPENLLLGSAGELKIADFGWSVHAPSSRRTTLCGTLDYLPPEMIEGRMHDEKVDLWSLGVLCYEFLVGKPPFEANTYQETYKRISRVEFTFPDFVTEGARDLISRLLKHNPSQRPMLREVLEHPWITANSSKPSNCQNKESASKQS

[4] = target: Cytochrome P450 3A4 (Homo sapiens, UniProt P08684); assay: Inhibition of CYP3A4 in supersomes (unknown origin) using 7-benzyloxy-4-trifluoromethylcoumarin as substrate after 30 mins; type: ADME
[5] = target: Cytochrome P450 2D6 (Homo sapiens, UniProt P10635); assay: Inhibition of CYP2D6 in supersomes (unknown origin) using AMMC as substrate after 30 mins; type: ADME
[6] = target: Aurora kinase B (Homo sapiens, UniProt Q96GD4); assay: Inhibition of Aurora B (unknown origin) by FRET-based homogenous assay
[7] = Solubility of the compound at pH 7.4; type: physicochemical; conditions: buffer
[8] = target: T3, Cytochrome P450 1A2 (Homo sapiens, UniProt P05177); assay: Inhibition of CYP1A2 in supersomes (unknown origin) using CEC as substrate after 30 mins; type: ADME
T3 sequence (P05177 whole entry): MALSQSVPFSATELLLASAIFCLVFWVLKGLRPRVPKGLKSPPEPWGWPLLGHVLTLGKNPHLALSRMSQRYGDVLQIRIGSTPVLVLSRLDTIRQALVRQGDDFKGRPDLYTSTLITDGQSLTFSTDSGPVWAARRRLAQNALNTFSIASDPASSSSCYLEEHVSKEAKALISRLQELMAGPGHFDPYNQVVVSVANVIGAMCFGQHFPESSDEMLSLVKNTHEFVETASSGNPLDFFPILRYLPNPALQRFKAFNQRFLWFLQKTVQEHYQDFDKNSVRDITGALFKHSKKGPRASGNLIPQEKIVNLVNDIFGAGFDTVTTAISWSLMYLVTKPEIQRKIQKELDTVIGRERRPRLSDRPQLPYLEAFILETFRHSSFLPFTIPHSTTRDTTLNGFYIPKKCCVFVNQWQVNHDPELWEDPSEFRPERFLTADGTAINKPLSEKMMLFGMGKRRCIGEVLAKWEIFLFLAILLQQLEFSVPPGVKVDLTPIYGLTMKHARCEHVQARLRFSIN

[9] = Permeability of the compound at pH 7.4 by PAMPA; type: ADME; conditions: read-out: permeability
[10] = Growth inhibition of human HCT116 cells after 5 days by SRB assay; type: functional; conditions: HCT-116, 120 h
[11] = target: T1, Dual specificity protein kinase TTK; assay: Inhibition of SUMO-tagged human TTK (1-275 residues) compound pre-incubated for 15 mins prior ATP addition by MBP-based assay
[12] = system: MDA-MB-468; assay: Growth inhibition of human MDA-MB-468 cells after 5 days by SRB assay; type: functional; conditions: MDA-MB-468, 120 h
[13] = target: Serine/threonine-protein kinase PLK1 (Homo sapiens, UniProt P53350); assay: Inhibition of PLK1 (unknown origin) by FRET-based homogenous assay
[14] = Cell cycle arrest in human HCT116 cells assessed as accumulation at sub-G1 phase at 1 uM after 2 days by flow cytometry; type: functional, cell-based; conditions: HCT-116

Sequence of Serine/threonine-protein kinase PLK1 (P53350 whole entry): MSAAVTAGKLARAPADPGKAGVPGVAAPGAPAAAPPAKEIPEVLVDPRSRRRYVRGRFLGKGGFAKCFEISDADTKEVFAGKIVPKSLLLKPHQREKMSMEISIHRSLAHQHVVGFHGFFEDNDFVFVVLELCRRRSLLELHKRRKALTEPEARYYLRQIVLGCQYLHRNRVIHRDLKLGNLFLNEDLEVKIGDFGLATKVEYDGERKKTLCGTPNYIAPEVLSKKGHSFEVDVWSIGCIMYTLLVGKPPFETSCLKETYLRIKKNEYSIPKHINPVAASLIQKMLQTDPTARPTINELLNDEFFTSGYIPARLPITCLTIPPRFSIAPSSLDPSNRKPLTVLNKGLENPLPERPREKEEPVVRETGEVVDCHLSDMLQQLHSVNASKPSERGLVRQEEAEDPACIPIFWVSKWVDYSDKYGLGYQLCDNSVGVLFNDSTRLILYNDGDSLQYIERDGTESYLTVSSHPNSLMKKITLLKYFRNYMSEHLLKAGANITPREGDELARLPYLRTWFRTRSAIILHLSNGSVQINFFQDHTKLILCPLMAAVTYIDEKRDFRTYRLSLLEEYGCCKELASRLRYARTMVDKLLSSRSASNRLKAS
Sequence of Aurora kinase B (Q96GD4 whole entry): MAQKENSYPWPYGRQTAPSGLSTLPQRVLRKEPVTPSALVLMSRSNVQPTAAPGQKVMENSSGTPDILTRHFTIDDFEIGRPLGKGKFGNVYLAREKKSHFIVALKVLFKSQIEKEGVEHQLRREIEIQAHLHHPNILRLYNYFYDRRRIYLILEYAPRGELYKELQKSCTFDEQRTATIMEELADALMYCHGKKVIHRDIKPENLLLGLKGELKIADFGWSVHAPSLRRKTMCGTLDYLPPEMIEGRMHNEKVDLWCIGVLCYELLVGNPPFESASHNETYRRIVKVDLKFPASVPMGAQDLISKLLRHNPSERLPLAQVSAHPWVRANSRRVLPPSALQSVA
Sequence of Cytochrome P450 3A4 (P08684 whole entry): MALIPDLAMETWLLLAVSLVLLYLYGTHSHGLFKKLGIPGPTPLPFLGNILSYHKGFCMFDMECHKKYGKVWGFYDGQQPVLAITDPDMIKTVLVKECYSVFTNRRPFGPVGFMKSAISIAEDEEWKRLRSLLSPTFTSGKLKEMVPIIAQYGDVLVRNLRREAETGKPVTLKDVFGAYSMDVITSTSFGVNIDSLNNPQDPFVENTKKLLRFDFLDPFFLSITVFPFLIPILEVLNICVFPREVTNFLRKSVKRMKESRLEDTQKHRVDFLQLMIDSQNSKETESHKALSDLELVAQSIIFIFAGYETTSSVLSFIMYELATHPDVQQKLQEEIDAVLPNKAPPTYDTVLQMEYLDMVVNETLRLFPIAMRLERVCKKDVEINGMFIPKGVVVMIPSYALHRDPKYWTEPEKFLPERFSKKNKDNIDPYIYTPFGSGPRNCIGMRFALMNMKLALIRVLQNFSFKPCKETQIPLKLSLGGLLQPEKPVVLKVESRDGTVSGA
Sequence of Cytochrome P450 2D6 (P10635 whole entry): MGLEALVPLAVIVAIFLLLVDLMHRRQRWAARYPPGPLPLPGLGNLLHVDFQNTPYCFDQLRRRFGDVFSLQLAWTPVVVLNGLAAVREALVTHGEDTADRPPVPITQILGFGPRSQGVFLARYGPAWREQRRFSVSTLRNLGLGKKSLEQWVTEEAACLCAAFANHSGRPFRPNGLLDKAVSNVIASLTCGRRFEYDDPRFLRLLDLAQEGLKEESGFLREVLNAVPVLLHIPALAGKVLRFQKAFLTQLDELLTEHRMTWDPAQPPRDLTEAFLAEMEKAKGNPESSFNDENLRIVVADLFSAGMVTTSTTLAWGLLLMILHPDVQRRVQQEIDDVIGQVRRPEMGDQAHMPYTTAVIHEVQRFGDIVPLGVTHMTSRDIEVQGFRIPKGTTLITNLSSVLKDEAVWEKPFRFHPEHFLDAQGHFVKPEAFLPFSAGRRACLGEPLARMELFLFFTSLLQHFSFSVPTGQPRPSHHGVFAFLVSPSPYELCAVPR

| SMILES | EC50 [1] | GI50 [2] | IC50 [3] | IC50 [4] | IC50 [5] | IC50 [6] | solubility [7] | IC50 [8] | Papp [9] | GI50 [10] | IC50 [11] | GI50 [12] | IC50 [13] | Activity [14] |
| --- | --- | --- | --- | --- | --- | --- | --- | --- | --- | --- | --- | --- | --- | --- |
| NS(=O)(=O)c1cccc(-c2n[nH]c3ccc(NC(=O)C(c4ccsc4)N4CCCC4)cc23)c1 (racemic) | 420 nM | 90 nM | 900 nM | 4000 nM | 10000 nM | 720 nM | 9 µg/mL (≈ 18.7 µM) | > 10000 nM | 4.2 ×10⁻⁶ cm/s | 70 nM | 2.9 nM | 90 nM | > 50000 nM | Active |
| CCc1ccccc1C(C(=O)Nc1ccc2[nH]nc(-c3cccc(S(N)(=O)=O)c3)c2c1)N(C)C (racemic) | 520 nM | 160 nM | 400 nM | 700 nM | 5000 nM | 480 nM | 1.4 µg/mL (≈ 2.93 µM) | > 10000 nM | 19 ×10⁻⁶ cm/s | 100 nM | 3.6 nM | 660 nM | > 50000 nM | Active |
